pIC50: −log10 of the molar value.

The target of the experiment is T1, human thrombin (Homo sapiens, UniProt P00734).
T1 construct: purchased Sigma T-6759
The experiment is described as follows: Inhibitory activity for thrombin (chromogenic substrate hydrolysis, 405 nm). The experiment is classed as biochemical. The settings on record: for Selectivity (trypsin/thrombin): IC50 for trypsin divided by IC50 for thrombin; for pIC50: human thrombin, 20 min, pH 8.0, N-benzoyl-Phe-Val-Arg-p-nitroanilide. As to the method: 20 μl of each compound of the present invention was dissolved in 50% methanol in various concentrations and then added to each well of a microplate, to each of which 160 μl of the reaction medium containing 125 mM NaCl, 50 mM Tris-HCl (pH 8.0) and 2 mM synthetic substrate (N-benzoyl-Phe-Val-Arg-p-nitroanilide, Sigma B-7632) were added. 20 μl of human thrombin solution (5 units/ml, Sigma T-6759, manufactured by Sigma Co.) containing 0.1% bovine serum albumin was added to each well to initiate the enzymatic reaction. After 20 minutes, the hydrolysis of substrate was determined by measuring the absorbance at 405 nm. […] The selectivity index was calculated by dividing the IC50 value for trypsin by the IC50 value for thrombin. The thrombin inhibitory activity and the trypsin inhibitory activity for the compound of the present invention are shown in the following Table 2.

Broadly, the pIC50 is the IC50 on a negative log10 scale, so that one unit is a factor of ten. Higher therefore signals a small IC50. For the compound `CCOC(=O)CN1CCC[C@@H]1C(=O)N1CCC[C@H]1CCc1cc2ccc(C(=N)N)cc2n1C` [Compound 84, ethyl 2-[(R)-2-[[(S)-2-[2-(6-amidino-1-methylindol-2-yl)ethyl]pyrrolidinyl]carbonyl]pyrrolidinyl]acetate], the “Selectivity (trypsin/thrombin)” value is given as 87.0 and the negative logarithm of the IC50 (pIC50) is 7.29.
The compound `CCOC(=O)CCCCCN1CCC[C@@H]1C(=O)N1CCC[C@H]1CCc1cc2ccc(C(=N)N)cc2n1CC` [Compound 130, ethyl 6-[(R)-2-[[(S)-2-[2-(6-amidino-1-ethylindol-2-yl)-ethyl]pyrrolidinyl]carbonyl]pyrrolidinyl]hexanoate] had a negative-log IC50 (pIC50) of 7.44.
Consider `CCn1c(CC[C@@H]2CCCN2C(=O)[C@H]2CCCN2C(=O)C[C@H](NS(C)(=O)=O)C(=O)O)cc2ccc(C(=N)N)cc21` [Compound 163, 4-[(R)-2-[[(S)-2-[2-(6-amidino-1-ethylindol-2-yl)ethyl]pyrrolidinyl]carbonyl]pyrrolidinyl]-(S)-2-[(methanesulfonyl)amino]-4-oxobutanoic acid], for which the “Selectivity (trypsin/thrombin)” value came to 25.6 and the negative logarithm of the IC50 (pIC50) was 7.71.
With `CCn1c(CC[C@@H]2CCCN2C(=O)C2CCCNC2)cc2ccc(C(=N)N)cc21` (stereo partly drawn) [Compound 194, 1-ethyl-2-[2-[(S)-1-[(3-piperidinyl)carbonyl]pyrrolidin-2-yl]ethyl]indole-6-carboxamidine], the pIC50 is 7.50.
Still for that read-out and setting: for `CCn1c(CC[C@@H]2CCCN2C(=O)[C@H]2CCCN2C(=O)C2CCCNC2)cc2ccc(C(=N)N)cc21` (stereo partly drawn) [Compound 168, 1-ethyl-2-[2-[(S)-1-[[(R)-1-(3-piperidinylcarbonyl)pyrrolidin-2-yl]carbonyl]pyrrolidin-2-yl]ethyl]indole-6-carboxamidine] the value was 7.50; for `CCOC(=O)C[C@H](N)C(=O)N1CCC[C@@H]1C(=O)N1CCC[C@H]1CCc1cc2ccc(C(=N)N)cc2n1CC` [Compound 147, ethyl 4-[(R)-2-[[(S)-2-[2-(6-amidino-1-ethylindol-2-yl)ethyl]pyrrolidinyl]carbonyl]pyrrolidinyl]-(S)-3-amino-4-oxobutanoate], 7.59.
As to `CCOC(=O)[C@H](C)NC(=O)CN1CCC[C@@H]1C(=O)N1CCC[C@H]1CCc1cc2ccc(C(=N)N)cc2n1CC` [Compound 116, ethyl (s)-2-[2-[(R)-2-[[(S)-2-[2-(6-amidino-1-ethylindol-2-yl)ethyl]pyrrolidinyl]carbonyl]pyrrolidinyl]-acetylamino]propanoate], the “Selectivity (trypsin/thrombin)” value is recorded as 27.4 and the pIC50 was 7.50.
For `CCn1c(CC[C@@H]2CCCN2C(=O)CC2CCCC2)cc2ccc(C(=N)N)cc21` [Compound 43, 1ethyl-2-[2-[(S)-1-(2-cyclopentylacetyl)pyrrolidin-2-yl]ethyl]indole-6-carboxamidine], in that order: 40.3 and 8.00.
With `CCOC(=O)CN(C1CC1)C(C)C(=O)N1CCC[C@H]1CCc1cc2ccc(C(=N)N)cc2n1CC` (stereo partly drawn) [Compound 64, ethyl 2-[[2-[(S)-2-[2-(6-amidino-1-ethylindol-2-yl)ethyl]pyrrolidinyl]-1-methyl-2-oxoethyl]cyclo-propylamino]acetate], the “Selectivity (trypsin/thrombin)” value amounted to 22.9 and the pIC50 was 7.82.
`CCn1c(CC[C@@H]2CCCN2C(=O)[C@H]2CCCN2C(=O)CC(N)=O)cc2ccc(C(=N)N)cc21` [Compound 175, 1-ethyl-2-[2-[(S)-1-[[(R)-1-(2-carbamoylacetyl)pyrrolidin-2-yl]carbonyl]pyrrolidin-2-yl]ethyl]indole-6-carboxamidine]: the pIC50 is 8.00.
The same measure, in the same setting: for `CCn1c(CC[C@@H]2CCCN2C(=O)CC2CCCCC2)cc2ccc(C(=N)N)cc21` [Compound 46, 1ethyl-2-[2-[(S)-1-(2-cyclohexylacetyl)pyrrolidin-2-yl]ethyl]indole-6-carboxamidine] the value was 7.54; for `CCC(N)C(=O)N1CCC[C@@H]1C(=O)N1CCC[C@H]1CCc1cc2ccc(C(=N)N)cc2n1CC` (stereo partly drawn) [Compound 144, 1-ethyl-2-[2-[(S)-1-[[(R)-1-(2-aminobutanoyl)pyrrolidin-2-yl]carbonyl]pyrrolidin-2-yl]ethyl]indole-6-carboxamidine], 7.60.
For `CCn1c(CC[C@@H]2CCCN2C(=O)[C@H]2CCCN2C(=O)[C@@H](N)C(C)C)cc2ccc(C(=N)N)cc21` [Compound 145, 1-ethyl-2-[2-[(S)-1-[[(R)-1-((S)-2-amino-3-methylbutanoyl)pyrrolidin-2-yl]carbonyl]pyrrolidin-2-yl]-ethyl]indole-6-carboxamidine], the “Selectivity (trypsin/thrombin)” value amounted to 20.1 and the negative-log IC50 (pIC50) was 7.58.
In the case of `Cn1c(CC[C@@H]2CCCN2Cc2c(C(N)=O)sc3ccccc23)cc2ccc(C(=N)N)cc21` [Compound 9], the pIC50 was 7.47.
Same read-out and setting: for `CCn1c(CC[C@@H]2CCCN2C(=O)[C@H]2CCCN2)cc2ccc(C(=N)N)cc21` [Compound 83] the value was 7.51.
Still for that read-out and setting: as for `CCn1c(CC[C@@H]2CCCN2C(=O)C(C)N(CC(=O)O)C2CC2)cc2ccc(C(=N)N)cc21` (stereo partly drawn) [Compound 65, 2-[[2-[(S)-2-[2-(6-amidino-1-ethylindol-2-yl)ethyl]pyrrolidinyl]-1-methyl-2-oxoethyl]cyclopylamino]acetic acid], the figure is 7.66; as for `CCn1c(CC[C@@H]2CCCN2C(=O)[C@H]2CCCN2C(=O)CNC)cc2ccc(C(=N)N)cc21` [Compound 142, 1-ethyl-2-[2-[(S)-1-[[(R)-1-[2-(methylamino)acetyl]pyrrolidin-2-yl]carbonyl]pyrrolidin-2-yl]ethyl]indole-6-carboxamidine], 7.48.
Take `CCOC(=O)CCC(=O)N1CCC[C@@H]1C(=O)N1CCC[C@H]1CCc1cc2ccc(C(=N)N)cc2n1CC` [Compound 176, ethyl 4-[(R)-2-[[(S)-2-[2-(6-amidino-1-ethylindol-2-yl)ethyl]pyrrolidinyl]carbonyl]pyrrolidinyl]-4-oxobutanoate]: the “Selectivity (trypsin/thrombin)” value is on record as 20.7 and the pIC50 is 7.66.
Take `CCn1c(CC[C@@H]2CCCN2C(=O)[C@H]2CCCN2C(=O)CC(C)N)cc2ccc(C(=N)N)cc21` (stereo partly drawn) [Compound 157, 1-ethyl-2-[2-[(S)-1-[[(R)-1-(3-amino-butanoyl)pyrrolidin-2-yl]carbonyl]pyrrolidin-2-yl]ethyl]indole-6-carboxamidine]: the pIC50 was 7.57.
The compound `CCn1c(CC[C@@H]2CCCN2C(=O)[C@H]2CCCN2C(=O)CCNS(C)(=O)=O)cc2ccc(C(=N)N)cc21` [Compound 158, 1-ethyl-2-[2-[(S)-1-[[(R)-1-[3-[(methanesulfonyl)amino]propanoyl]pyrrolidin-2-yl]carbonyl]pyrrolidin-2-yl]ethyl]indole-6-carboxamidine] had a pIC50 of 8.26.
Still for that read-out and setting: for `CCn1c(CC[C@@H]2CCCN2C(=O)C(CC(=O)O)NC2CC2)cc2ccc(C(=N)N)cc21` (stereo partly drawn) [Compound 73, 4-[(S)-2-[2-(6-amidino-1-ethylindol-2-yl)ethyl]pyrrolidinyl]-3-cyclopropylamino-4-oxobutanoic acid] the value was 7.48; for `CCn1c(CC[C@@H]2CCCN2C(=O)[C@H]2CCCN2C(=O)C2CCNCC2)cc2ccc(C(=N)N)cc21` [Compound 169, 1-ethyl-2-[2-[(S)-1-[[(R)-1-[(4-piperidinyl)carbonyl]pyrrolidin-2-yl]carbonyl]pyrrolidin-2-yl]ethyl]indole-6-carboxamidine], 7.52.
The same measure, in the same setting: as for `CCn1c(CC[C@@H]2CCCN2C(=O)C2CCCCN2CC(=O)OC)cc2ccc(C(=N)N)cc21` (stereo partly drawn) [Compound 192, methyl-2-[2-[[(S)-2-[2-(6-amidino-1-ethylindol-2-yl)ethyl]pyrrolidinyl]carbonyl]piperidinyl]acetate], the figure is 7.47.
Consider `CCOC(=O)CC(NC1CC1)C(=O)N1CCC[C@H]1CCc1cc2ccc(C(=N)N)cc2n1CC` (stereo partly drawn) [Compound 72, ethyl 4-[(S)-2-[2-(6-amidino-1-ethylindol-2-yl)ethyl]pyrrolidinyl]-3-cyclopropylamino-4-oxobutanoate], for which the “Selectivity (trypsin/thrombin)” value amounted to 13.6 and the pIC50 was 8.03.
The compound `CCOC(=O)Cn1c(CC[C@@H]2CCCN2C(=O)[C@H]2CCCN2C(C)=O)cc2ccc(C(=N)N)cc21` [Compound 222, ethyl 2-[2-[2-[(S)-1-[((R)-1-acetylpyrrolidin-2-yl)carbonyl]pyrrolidin-2-yl]ethyl]-6-amidinoindolyl]acetate] showed a pIC50 of 7.94.
Regarding `CCn1c(CC[C@@H]2CCCN2C(=O)Cc2ccccc2C(=O)O)cc2ccc(C(=N)N)cc21` [Compound 24, 2-[2-[(S)-2-[2-(6-amidino-1-ethylindol-2-yl)ethyl]pyrrolidinyl]-2-oxoethyl]benzoic acid], the “Selectivity (trypsin/thrombin)” value was 83.6 and the pIC50 is 8.07.
On the same counts, the results for `CCOC(=O)C1CCCN1CC(=O)N1CCC[C@H]1CCc1cc2ccc(C(=N)N)cc2n1CC` (stereo partly drawn) [Compound 196, ethyl 1-[2-[(S)-2-[2-(6-amidino-1-ethylindol-2-yl)ethyl]pyrrolidinyl]-2-oxoethyl]pyrrolidine-2-carboxylate] are 14.4 and 7.43.
On the same counts, the results for `CCn1c(CC[C@@H]2CCCN2C(=O)[C@H]2CCCN2CCCCC(=O)O)cc2ccc(C(=N)N)cc21` [Compound 129, 5-[(R)-2-[[(S)-2-[2-(6-amidino-1-ethylindol-2-yl)-ethyl]pyrrolidinyl]carbonyl]pyrrolidinyl]pentanoic acid] are 10.6 and 7.88.
